Data from ChEMBL document CHEMBL1156829 (Proc Natl Acad Sci U S A, 2008).
pEC50: −log10 of the molar value.

Key:
Plasmodium falciparum [1] = assay: NOVARTIS: Inhibition of Plasmodium falciparum 3D7 (drug-susceptible) proliferation in erythrocyte-based infection assay; assay type: functional, organism-based; settings: Plasmodium falciparum, 3D7
Plasmodium falciparum [2] = assay: NOVARTIS: Inhibition of Plasmodium falciparum W2 (drug-resistant) proliferation in erythrocyte-based infection assay; assay type: functional, organism-based; settings: Plasmodium falciparum, W2; read-out: EC50
[3] = NOVARTIS: Cytotoxicity against human hepatocellular carcinoma cell line (Huh7); assay type: toxicity, cell-based, Huh-7; settings: Huh7 cells (hepatocellular carcinoma cell line)

Nc1nc(N)c2nc(CCc3ccc(C(=O)N[C@H](CCC(=O)O)C(=O)O)cc3)cnc2n1
pEC50 (Plasmodium falciparum [1]): 7.53 | pEC50 (Plasmodium falciparum [2]): 8.75 | CC50 [3]: 8.1 nM

COc1ccc(NC(=O)c2c(Cl)nc(Cl)c([N+](=O)[O-])c2C)cc1
pEC50 (Plasmodium falciparum [1]): < 5.90 | pEC50 (Plasmodium falciparum [2]): 5.69 | CC50 [3]: > 10000 nM

CC(=O)Nc1ccc(C(C)=NNc2nc(Nc3cc(C)ccc3C)nc(N3CCOCC3)n2)cc1
pEC50 (Plasmodium falciparum [1]): < 5.90 | pEC50 (Plasmodium falciparum [2]): 5.69 | CC50 [3]: > 10000 nM

O=C1Cc2ccccc2C(=C2CCNCC2)c2ccsc21
pEC50 (Plasmodium falciparum [1]): 6.27 | pEC50 (Plasmodium falciparum [2]): 5.69 | CC50 [3]: > 10000 nM

CCCCSc1oc(C)nc1[P+](c1ccccc1)(c1ccccc1)c1ccccc1
pEC50 (Plasmodium falciparum [1]): 6.69 | pEC50 (Plasmodium falciparum [2]): 6.23 | CC50 [3]: 2640 nM

Cc1cccc(C)c1NC(=O)C(O)c1ccc(Cl)cc1Cl (stereo unspecified)
pEC50 (Plasmodium falciparum [1]): < 5.90 | pEC50 (Plasmodium falciparum [2]): 5.66 | CC50 [3]: > 10000 nM

O=C(NCCN1CCCCC1)c1ccc(OC2CCN(CC3CCCCC3)CC2)c(Cl)c1
pEC50 (Plasmodium falciparum [1]): 6.46 | pEC50 (Plasmodium falciparum [2]): 5.93 | CC50 [3]: 5370 nM

N#Cc1ccccc1CN1CCC(Oc2cccc3onc(N)c23)CC1
pEC50 (Plasmodium falciparum [1]): < 5.78 | pEC50 (Plasmodium falciparum [2]): 6.72 | CC50 [3]: 891 nM

CN1C=C(c2ccc3ccccc3n2)C(C[N+](=O)[O-])c2ccccc21 (stereo unspecified)
pEC50 (Plasmodium falciparum [1]): 6.10 | pEC50 (Plasmodium falciparum [2]): 5.67 | CC50 [3]: > 10000 nM

Nc1ccc2[nH]c(/C=C/c3ccc(Cl)cc3)nc2c1
pEC50 (Plasmodium falciparum [1]): < 5.90 | pEC50 (Plasmodium falciparum [2]): 5.68 | CC50 [3]: > 10000 nM

Cc1sc2nc(CN(C(=O)CCc3ccccc3)C3CCCCC3)[nH]c(=O)c2c1C
pEC50 (Plasmodium falciparum [1]): < 5.90 | pEC50 (Plasmodium falciparum [2]): 6.37 | CC50 [3]: 1940 nM

CC(C)NC(=O)N1CCN(C(=O)COC(c2cccs2)c2cccnc2Cl)CC1 (stereo unspecified)
pEC50 (Plasmodium falciparum [1]): < 5.90 | pEC50 (Plasmodium falciparum [2]): 5.69 | CC50 [3]: > 10000 nM

CC[C@@H]1CCC[C@H](C)CC[C@@H](O[C@@H]2O[C@@H](C)[C@@H](O)[C@@H](N)[C@H]2O)[C@H](CC)CCCNC1=O
pEC50 (Plasmodium falciparum [1]): 5.80 | pEC50 (Plasmodium falciparum [2]): < 5.90 | CC50 [3]: > 6250 nM

NC(=NCc1ccccc1)NC(=O)c1nc(Cl)c(N)nc1N
pEC50 (Plasmodium falciparum [1]): 5.93 | pEC50 (Plasmodium falciparum [2]): < 5.90 | CC50 [3]: > 6250 nM

O=C(Nc1cc(C(F)(F)F)cc(C(F)(F)F)c1)Nc1ccc2nnsc2c1
pEC50 (Plasmodium falciparum [1]): 5.20 | pEC50 (Plasmodium falciparum [2]): 5.36 | CC50 [3]: 19400 nM

O=C(Nc1ccncc1)Nc1cccc(NC(=O)Nc2ccncc2)c1
pEC50 (Plasmodium falciparum [1]): < 5.90 | pEC50 (Plasmodium falciparum [2]): 5.65 | CC50 [3]: > 10000 nM

Cc1cc(N(C)C)cc(C)[n+]1OC(=O)N(c1ccccc1)c1ccccc1
pEC50 (Plasmodium falciparum [1]): < 5.83 | pEC50 (Plasmodium falciparum [2]): 5.70 | CC50 [3]: > 10000 nM

O=C(NCCc1ccccc1)c1cnc(NCCCn2ccnc2)nc1NC1CCCC1
pEC50 (Plasmodium falciparum [1]): 6.17 | pEC50 (Plasmodium falciparum [2]): 5.77 | CC50 [3]: > 8690 nM

O=C(NC(Cc1ccccc1)c1nnc(SCc2ccc(F)cc2)n1-c1ccc(Cl)cc1Cl)C1CCCCC1 (stereo unspecified)
pEC50 (Plasmodium falciparum [1]): 6.13 | pEC50 (Plasmodium falciparum [2]): 6.46 | CC50 [3]: 1660 nM

O=C(O)c1ccc(S(=O)(=O)c2ccc3c(c2)C(=O)N(c2ccc(Sc4ccc([N+](=O)[O-])cc4)cc2)C3=O)cc1
pEC50 (Plasmodium falciparum [1]): < 5.90 | pEC50 (Plasmodium falciparum [2]): 5.68 | CC50 [3]: > 10000 nM

C[C@H]1C[C@H](C)C(=O)[C@@H]([C@@H](O)CC2CC(=O)NC(=O)C2)C1
pEC50 (Plasmodium falciparum [1]): 7.66 | pEC50 (Plasmodium falciparum [2]): 7.17 | CC50 [3]: 304 nM

COc1ccc(C(=O)N2C(C(=O)Nc3ccccc3F)CSC2c2ccc(C(C)(C)C)cc2)cc1 (stereo unspecified)
pEC50 (Plasmodium falciparum [1]): 6.03 | pEC50 (Plasmodium falciparum [2]): 6.10 | CC50 [3]: > 3600 nM

COc1ccc(C)cc1Nc1nc(N)c2cc(OC)c(OC)cc2n1
pEC50 (Plasmodium falciparum [1]): 6.01 | pEC50 (Plasmodium falciparum [2]): 5.69 | CC50 [3]: > 10000 nM

Cc1sc2nc(C3CC3)n(C3CCN(C(=O)c4ccccn4)CC3)c(=O)c2c1C
pEC50 (Plasmodium falciparum [1]): < 5.90 | pEC50 (Plasmodium falciparum [2]): 5.70 | CC50 [3]: > 10000 nM

O=C1NC(=S)N/C1=C\C=C\c1ccc([N+](=O)[O-])o1
pEC50 (Plasmodium falciparum [1]): < 6.06 | pEC50 (Plasmodium falciparum [2]): 5.66 | CC50 [3]: > 10000 nM

CCN(CC)CCCC(C)Nc1cc(/C=C/c2ccc([N+](=O)[O-])cc2)nc2ccc(OC)cc12 (stereo unspecified)
pEC50 (Plasmodium falciparum [1]): 6.13 | pEC50 (Plasmodium falciparum [2]): 5.89 | CC50 [3]: > 6250 nM

N=C1NC(=O)C(=CC=Cc2ccc([N+](=O)[O-])o2)S1
pEC50 (Plasmodium falciparum [1]): 6.15 | pEC50 (Plasmodium falciparum [2]): 5.83 | CC50 [3]: 7210 nM
